Measurements published in US20240025852A1, “T-TYPE CALCIUM CHANNEL MODULATORS AND METHODS OF USE THEREOF” (PRAXIS PRECISION MEDICINES, INC., priority 2020, published 2024).

How the values were obtained:
[1] = biological target: T1, Recombinant CYP3A4 Supersomes (Homo sapiens, UniProt P08684); test: Recombinant CYP3A4 Clearance Assay; format: in vitro ADME; details: for % of Control (intrinsic clearance relative to the control compound): observed CLint divided by average CLint of undeuterated control compound; for Half-Life / CLint: recombinant CYP3A4 50 pmol/mL, 1 μM substrate, NADPH; for Half-Life: 0-120 minutes; for CLint: control = geometric mean of 3 replicates
T1 construct: purchased
Description: The CYP3A4 Clearance Assay was performed to determine the stability of deuterated compounds described herein and calculate changes in clearance relative to the control compound (undeuterated compound) that has the following structure:
Recombinant CYP3A4 Supersomes were prepared in 100 mM potassium phosphate buffer (50 pmol/mL final recombinase) and 80 μL aliquots were delivered per well to 96-well reaction plates containing 10 μL/well stock working solution containing substrate at 10× final concentration in 0.1:9.9:90 DMSO:ACN:100 mM phosphate buffer. Final substrate concentration during incubation was 1 μM. Reaction mixtures were pre-incubated at 37° C. for 10 minutes, prior to addition of 10 μL/well of NADPH regenerating system to initiate the reaction (β-Nicotinamide adenine dinucleotide phosphate) or 100 mM phosphate as a buffer control.
Clearance assessments were performed for test compounds in singlicate except for the control compound, which was tested in triplicate. Incubations were maintained at 37° C. for 0, 5, 15, 30, 45, 60, 90, and 120 minutes (or 0 and 120 minutes for buffer control). The reactions were terminated with 3× volume of cold (4° C.) acetonitrile (ACN) containing 200 ng/mL tolbutamide and 200 ng/mL labetalol as internal standards (IS). The crash plates were centrifuged at 4000 rpm at 4° C. for 20 min to precipitate residual protein. Following protein precipitation, sample supernatants were harvested and 3× volume of HPLC grade water was added to each sample for chromatography purposes. Plates were sealed and shaken for 10 minutes prior to LC-MS/MS analysis using generic LCMS/MS conditions.
(§1) LC-MS/MS chromatograms were analyzed by peak area ratio (test article peak area/internal standard peak area) and natural log transformed, and plotted against time. The slope of the line was determined to calculate elimination rate constant. Subsequently, half-life (t1/2) and intrinsic clearance (CLint) were calculated using the following equations: […]
Average intrinsic clearance of the control compound was determined by taking the geometric mean of 3 replicates.

[2] = Hμrel Low Clearance Assay; format: in vitro ADME, human; set-up: % of Control (intrinsic clearance relative to the control compound): tested at 1 µM; details: HμRELhumanPool 96-well hepatic co-culture, human hepatic co-culture, 1 μM substrate, 0-72 hr incubation, control = geometric mean of 3 replicates
Description: (§2) The Hμrel Low Clearance Assay was performed to determine the stability of deuterated compounds described herein and calculate changes in clearance relative to the control compound (undeuterated compound) that has the following structure:
(§3) HμRELhumanPool™ 96-well hepatic co-culture plates were media changed and cells were allowed to acclimatize at 37° C. for 20 hr. HμREL® incubation media (serum free) and test compound diluted from a 1000×DMSO stock (final substrate concentration 1 μM; final DMSO concentration 0.1%) were added to the HμREL© 96-well co-culture system at a final cell number of 30,000 cells per well to initiate the reaction. The final incubation volume was 80 μL per time point and two control compounds were included for reference (ketoprofen and prednisolone). All clearance assessments were performed in singlicate with the exception of the undeuterated control compound, which was tested in duplicate on two separate days for a total of 4 replicates. Each compound was incubated for 0, 2, 6, 24, 48 and 72 hr. The reactions were terminated by transferring 60 μL of incubate to 180 μL acetonitrile containing internal standard at the appropriate time points. The crash plates were centrifuged at 3000 rpm at 4° C. for 20 min to precipitate residual protein. Following protein precipitation, sample supernatants were combined in cassettes of up to 4 compounds and analyzed using generic LCMS/MS conditions.
as §1
(§4) Average clearance of the control compound was determined by taking the geometric mean of 3 of the four replicates. The fourth replicate was excluded from the average determination as an outlier.

[3] = tested on: HμRELhumanPool 96-well hepatic co-culture; test: Hμrel Low Clearance Assay; format: in vitro ADME, human; set-up: % of Control (intrinsic clearance relative to the control compound): tested at 1 µM; details: for Half-Life: human hepatic co-culture, 1 μM substrate, 0-72 hr incubation; for % of Control (intrinsic clearance relative to the control compound): observed CLint divided by average CLint of undeuterated control compound
Description: as §2, §3, §1, §4

T1 sequence (P08684 whole entry): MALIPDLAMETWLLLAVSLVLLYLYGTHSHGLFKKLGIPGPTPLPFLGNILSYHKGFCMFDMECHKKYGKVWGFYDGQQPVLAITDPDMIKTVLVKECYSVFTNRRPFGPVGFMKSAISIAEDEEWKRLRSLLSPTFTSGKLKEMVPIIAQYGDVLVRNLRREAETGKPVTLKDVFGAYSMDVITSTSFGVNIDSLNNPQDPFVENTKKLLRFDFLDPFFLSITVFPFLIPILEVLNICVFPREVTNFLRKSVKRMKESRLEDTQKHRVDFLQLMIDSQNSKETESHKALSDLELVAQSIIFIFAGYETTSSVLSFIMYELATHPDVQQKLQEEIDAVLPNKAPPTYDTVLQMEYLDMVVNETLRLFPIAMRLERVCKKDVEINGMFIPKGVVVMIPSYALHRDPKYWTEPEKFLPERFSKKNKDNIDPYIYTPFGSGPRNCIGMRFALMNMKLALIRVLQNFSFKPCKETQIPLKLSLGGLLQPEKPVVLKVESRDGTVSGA

Row | % of Control (intrinsic clearance relative to the control compound) [1] | Half-Life [1] | CLint [1] | hepatocyte CLint at 1 μM ([2]; human) | Half-Life [3] | % of Control (intrinsic clearance relative to the control compound) [3] | SMILES | hepatocyte CLint at 1 μM [2]
1 | 65.3% | 0.202 h | 1.15 µL/min/pmol | 0.539 µL/min/1e6 cells | 57.17 h | 38.1% | [2H]C1([2H])N(CC(=O)NC(C)(C)C)C([2H])([2H])C([2H])([2H])C([2H])(CNC(=O)c2cc(F)cc(Cl)c2)C1([2H])[2H] [Compound 1, N-[[1-[2-(tert-butylamino)-2-oxo-ethyl]-2,2,3,3,4,5,5,6,6-nonadeuterio-4-piperidyl]methyl]-3-chloro-5-fluoro-benzamide] | 
2 | 82.3% | 0.16 h | 1.45 µL/min/pmol | 1.47 µL/min/1e6 cells | 21 h | 104% | [2H]C1([2H])CN(CC(=O)NC(C)(C)C)CC([2H])([2H])C1CNC(=O)c1cc(F)cc(Cl)c1 [Compound 3, N-[[1-[2-(tert-butylamino)-2-oxo-ethyl]-3,3,5,5-tetradeuterio-4-piperidyl]methyl]-3-chloro-5-fluoro-benzamide] | 
3 | 98.6% | 0.133 h | 1.74 µL/min/pmol | 1.5 µL/min/1e6 cells | 20.5 h | 106% | [2H]C([2H])(NC(=O)c1cc(F)cc(Cl)c1)C1CCN(CC(=O)NC(C)(C)C)CC1 [Compound 4, N-[[1-[2-(tert-butylamino)-2-oxo-ethyl]-4-piperidyl]-dideuterio-methyl]-3-chloro-5-fluoro-benzamide] | 
4 | 94.1% | 0.14 h | 1.66 µL/min/pmol | 1.32 µL/min/1e6 cells | 23.33 h | 93.3% | [2H]C([2H])(NC(=O)c1cc(F)cc(Cl)c1)C1CCN(CC(=O)NC(C([2H])([2H])[2H])(C([2H])([2H])[2H])C([2H])([2H])[2H])CC1 [Compound 5, 3-chloro-N-[dideuterio-[1-[2-oxo-2-[[2,2,2-trideuterio-1,1-bis(trideuteriomethyl)ethyl]amino]ethyl]-4-piperidyl]methyl]-5-fluoro-benzamide] | 
5 | 77.2% | 0.17 h | 1.36 µL/min/pmol | 1.41 µL/min/1e6 cells | 21.83 h | 99.6% | [2H]C([2H])(C(=O)NC(C)(C)C)N1CCC(CNC(=O)c2cc(F)cc(Cl)c2)CC1 [Compound 6, N-[[1-[2-(tert-butylamino)-1,1-dideuterio-2-oxo-ethyl]-4-piperidyl]methyl]-3-chloro-5-fluoro-benzamide] | 
6 | 100% | 0.132 h | 1.76 µL/min/pmol | 1.41 µL/min/1e6 cells | 21.83 h | 99.6% | [2H]C([2H])([2H])C(C)(C)NC(=O)CN1CCC(CNC(=O)c2cc(F)cc(Cl)c2)CC1 [Compound 7, 3-chloro-5-fluoro-N-[[1-[2-oxo-2-[(2,2,2-trideuterio-1,1-dimethyl-ethyl)amino]ethyl]-4-piperidyl]methyl]benzamide] | 
7 | 88.4% | 0.148 h | 1.56 µL/min/pmol | 1.28 µL/min/1e6 cells | 24 h | 90.5% | [2H]C1([2H])CN(CC(=O)NC(C([2H])([2H])[2H])(C([2H])([2H])[2H])C([2H])([2H])[2H])CC([2H])([2H])C1CNC(=O)c1cc(F)cc(Cl)c1 [Compound 8, 3-chloro-5-fluoro-N-[[3,3,5,5-tetradeuterio-1-[2-oxo-2-[[2,2,2-trideuterio-1,1-bis(trideuteriomethyl)ethyl]amino]ethyl]-4-piperidyl]methyl]benzamide] | 
8 | 76.6% | 0.172 h | 1.35 µL/min/pmol | 1.18 µL/min/1e6 cells | 26.17 h | 83.4% | [2H]C1([2H])CN(CC(=O)NC(C)(C)C([2H])([2H])[2H])CC([2H])([2H])C1CNC(=O)c1cc(F)cc(Cl)c1 [Compound 9, 3-chloro-5-fluoro-N-[[3,3,5,5-tetradeuterio-1-[2-oxo-2-[(2,2,2-trideuterio-1,1-dimethyl-ethyl)amino]ethyl]-4-piperidyl]methyl]benzamide] | 
9 | 81.1% | 0.162 h | 1.43 µL/min/pmol | 0.91 µL/min/1e6 cells | 33.83 h | 64.3% | [2H]C([2H])(NC(=O)c1cc(F)cc(Cl)c1)C1CCN(CC(=O)NC(C)(C)C([2H])([2H])[2H])CC1 [Compound 10, 3-chloro-N-[dideuterio-[1-[2-oxo-2-[(2,2,2-trideuterio-1,1-dimethyl-ethyl)amino]ethyl]-4-piperidyl]methyl]-5-fluoro-benzamide] | 
10 | 60.3% | 0.218 h | 1.06 µL/min/pmol | 0.676 µL/min/1e6 cells | 45.5 h | 47.8% | [2H]C([2H])([2H])C(NC(=O)CN1C([2H])([2H])C([2H])([2H])C([2H])(CNC(=O)c2cc(F)cc(Cl)c2)C([2H])([2H])C1([2H])[2H])(C([2H])([2H])[2H])C([2H])([2H])[2H] [Compound 12, 3-chloro-5-fluoro-N-[[2,2,3,3,4,5,5,6,6-nonadeuterio-1-[2-oxo-2-[[2,2,2-trideuterio-1,1-bis(trideuteriomethyl)ethyl]amino]ethyl]-4-piperidyl]methyl]benzamide] | 
11 | 105% | 0.125 h | 1.85 µL/min/pmol | 0.885 µL/min/1e6 cells | 34.83 h | 62.5% | [2H]C([2H])([2H])C(C)(NC(=O)CN1CCC(CNC(=O)c2cc(F)cc(Cl)c2)CC1)C([2H])([2H])[2H] [Compound 14, 3-chloro-5-fluoro-N-[[1-[2-oxo-2-[[2,2,2-trideuterio-1-methyl-1-(trideuteriomethyl)ethyl]amino]ethyl]-4-piperidyl]methyl]benzamide] | 

Row | SMILES | % of Control (intrinsic clearance relative to the control compound) [1] | Half-Life [1] | CLint [1] | hepatocyte CLint at 1 μM ([2]; human) | Half-Life [3] | % of Control (intrinsic clearance relative to the control compound) [3] | hepatocyte CLint at 1 μM [2]
12 | [2H]C1([2H])CC(CNC(=O)c2cc(F)cc(Cl)c2)CC([2H])([2H])N1CC(=O)NC(C)(C)C [Compound 2, N-[[1-[2-(tert-butylamino)-2-oxo-ethyl]-2,2,6,6-tetradeuterio-4-piperidyl]methyl]-3-chloro-5-fluoro-benzamide] | 68.5% | 0.192 h | 1.21 µL/min/pmol |  | 25.5 h | 85.5% | 1.21 µL/min/1e6 cells
